From patent US10221138B2, “Biaryl derivatives as GPR120 agonists” (LG CHEM, LTD., priority 2013, dated 2019)

Biological target: T1, hGPR120 (Homo sapiens, UniProt Q5NUL3)
T1 construct: expressed in transfected cells; host or cells: CHO-K1
T1 sequence (Q5NUL3 1-361): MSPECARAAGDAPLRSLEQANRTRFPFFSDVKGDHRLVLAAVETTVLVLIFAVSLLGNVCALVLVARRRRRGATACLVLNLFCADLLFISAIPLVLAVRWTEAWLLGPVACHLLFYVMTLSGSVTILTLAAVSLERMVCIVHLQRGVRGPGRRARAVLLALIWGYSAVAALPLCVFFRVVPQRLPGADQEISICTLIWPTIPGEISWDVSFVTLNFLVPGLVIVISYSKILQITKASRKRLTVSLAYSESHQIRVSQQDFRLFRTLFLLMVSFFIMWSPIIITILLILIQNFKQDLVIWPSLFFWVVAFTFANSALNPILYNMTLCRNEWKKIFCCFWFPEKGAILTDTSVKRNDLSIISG
Experiment: Measurement of activity of GPR120 agonist (cell-based calcium fluorescence assay)
Conditions: CHO-K1 cells expressing Ga16 and hGPR120, Calcium 5 dye fluorescence; activity class; read-out: EC50
Method: CHO-K1 cells expressing Ga16 and hGPR120 were dispensed into each well of a 96-well plate (3×10^4 cells/100 μl/well) and then incubated in 5% CO2, 37° C. incubator for 18 hours. Each well was treated with 100 μl of Calcium 5 dye (Molecular Devices) solution including 2% DMSO and then incubated in 5% CO2, 37° C. incubator for 1 hour. Serially diluted GPR120 agonists were prepared to a final concentration of 0.5% DMSO in a 96-well plate.
Fluorescence increased by the serially diluted GPR120 agonists is calculated as a relative percent (%) value based on the fluorescence represented by the treatment of 1% DMSO only. […] The calculation of measurement was carried out by using statistical software (Prizm).
Activity is denoted based on the following criteria: […]

Compound	EC50
O=C(O)CCCOc1c(F)cc(-c2cccc(N3CCCC3)n2)cc1F [Example 12, 4-[2,6-difluoro-4-(6-pyrrolidin-1-yl-2-pyridyl)phenoxy]butyric acid]	< 0.2 µM
O=C(O)CCCCCOc1c(F)cc(-c2cccnc2OCC2CCC2)cc1F [Example 272, 6-[4-[2-(cyclobutylmethoxy)-3-pyridyl]-2,6-difluoro-phenoxy]hexanoic acid]	< 0.2 µM
CC(CCC(=O)O)Sc1c(F)cc(-c2cccnc2SC2CCCC2)cc1F (centres unmarked) [Example 202, 4-[4-(2-cyclopentylsulfanyl-pyridin-3-yl)-2,6-difluoro-phenylsulfanyl]-pentanoic acid]	< 0.2 µM
O=C(O)CCCOc1c(F)cc(-c2cccc(C3CCCC3)c2)cc1F [Example 97, 4-[4-(3-cyclopentylphenyl)-2,6-difluoro-phenoxy]butanoic acid]	< 0.2 µM
O=C(O)CCCOc1c(F)cc(-c2cccc(CC3CCC3)c2)cc1F [Example 102, 4-[4-[3-(cyclobutylmethyl)phenyl]-2,6-difluoro-phenoxy]butanoic acid]	< 0.2 µM
O=C(O)CCCSc1c(F)cc(-c2cccnc2SC2CCCC2)cc1F [Example 147, 4-[4-(2-cyclopentylsulfanyl-pyridin-3-yl)-2,6-difluoro-phenylsulfanyl]-butyric acid]	< 0.2 µM
O=C(O)CCCSc1ccc(-c2cc(F)ccc2OC2CCCC2)cc1 [Example 179, 4-(2′-cyclopentyloxy-5′-fluoro-biphenyl-4-ylsulfanyl)-butyric acid]	0.2 to 2 µM
O=C(O)CCCOc1c(F)cc(-c2ccccc2NCC2CC2)cc1F [Example 82, 4-[4-[2-(cyclopropylmethylamino)phenyl]-2,6-difluoro-phenoxy]butanoic acid]	< 0.2 µM
O=C(O)CCCOc1c(F)cc(-c2cccc(SC3CCC3)n2)cc1F [Example 20, 4-[4-(6-cyclobutylsulfanyl-2-pyridyl)-2,6-difluoro-phenoxy]butyric acid]	< 0.2 µM
CCCCSc1ncccc1-c1cc(F)c(OCCCC(=O)O)c(F)c1 [Example 207, 4-[4-(2-butylsulfanyl-pyridin-3-yl)-2,6-difluoro-phenoxy]-butanoic acid]	< 0.2 µM
Cc1cc(-c2cccc(OC3CCC3)n2)ccc1OCCCC(=O)O [Example 26, 4-[4-[6-(cyclobutoxy)-2-pyridyl]-2-methyl-phenoxy]butyric acid]	< 0.2 µM
CC(C)Sc1cccc(-c2ccc(OCCCC(=O)O)c(F)c2)n1 [Example 5, 4-[2-fluoro-4-(6-isopropylsulfanyl-2-pyridyl)phenoxy]butyric acid]	0.2 to 2 µM
CCCNc1ccccc1-c1cc(F)c(OCCCC(=O)O)c(F)c1 [Example 81, 4-[2,6-difluoro-4-[2-(propylamino)phenyl]phenoxy]butanoic acid]	< 0.2 µM
CC(CCC(=O)O)Sc1ccc(-c2cccnc2OC2CCCC2)cc1 (centres unmarked) [Example 199, 4-[4-(2-cyclopentyloxy-pyridin-3-yl)-phenylsulfanyl]-pentanoic acid]	< 0.2 µM
O=C(O)CCCSc1ccc(-c2cccc(OC3CCC3)n2)cc1 [Example 128, 4-[4-(6-cyclobutoxy-pyridin-2-yl)-phenylsulfanyl]-butyric acid]	< 0.2 µM
O=C(O)CCCOc1c(F)cc(-c2cccnc2NC2CCCC2)cc1F [Example 73, 4-[4-[2-(cyclopentylamino)-3-pyridyl]-2,6-difluoro-phenoxy]butanoic acid]	0.2 to 2 µM
CC(C)Sc1cccc(-c2ccc(OCCCC(=O)O)c(Cl)c2)n1 [Example 4, 4-[2-chloro-4-(6-isopropylsulfanyl-2-pyridyl)phenoxy]butyric acid]	0.2 to 2 µM
CC(CCC(=O)O)Oc1c(F)cc(-c2cccnc2SC2CCC2)cc1F (centres unmarked) [Example 28, 4-[4-(2-cyclobutylsulfanyl-3-pyridyl)-2,6-difluoro-phenoxy]pentanoic acid]	< 0.2 µM
CC(C)Cc1ncccc1-c1cc(F)c(OCCCC(=O)O)c(F)c1 [Example 106, 4-[2,6-difluoro-4-(2-isobutyl-3-pyridyl)phenoxy]butanoic acid]	2 to 20 µM
O=C(O)CCCOc1c(F)cc(-c2cccc(N3CCCC3)c2)cc1F [Example 92, 4-[2,6-difluoro-4-(3-pyrrolidin-1-ylphenyl)phenoxy]butanoic acid]	< 0.2 µM
O=C(O)CCCSc1ccc(-c2cccc(F)c2OC2CCCC2)cc1F [Example 194, 4-(2′-cyclopentyloxy-3,3′-difluoro-biphenyl-4-ylsulfanyl)-butyric acid]	> 20 µM

Compound	EC50
CC(C)Nc1ncccc1-c1ccc(SCCCC(=O)O)c(F)c1 [Example 174, 4-[2-fluoro-4-(2-isopropylamino-pyridin-3-yl)-phenylsulfanyl]-bytyric acid]	0.2 to 2 µM
O=C(O)CCCOc1c(F)cc(-c2cccnc2SC2CC2)cc1F [Example 205, 4-[4-(2-cyclopropylsulfanyl-pyridin-3-yl)-2,6-difluoro-phenoxy]-butanoic acid]	0.2 to 2 µM
O=C(O)CCCCSc1c(F)cc(-c2cccnc2OCC2CCC2)cc1F [Example 260, 5-[4-(2-cyclobutylmethoxy-pyridin-3-yl)-2,6-difluoro-phenylsulfanyl]-pentanoic acid]	< 0.2 µM
O=C(O)CCCCOc1c(F)cc(-c2cccnc2OCC2CCC2)cc1F [Example 196, 5-[4-(2-cyclobutylmethoxy-pyridin-3-yl)-2,6-difluoro-phenoxy]-pentanoic acid]	< 0.2 µM
Cc1cc(-c2cccnc2SC2CCC2)cc(C)c1OCCCC(=O)O [Example 10, 4-[4-(2-cyclobutylsulfanyl-pyridin-3-yl)-2,6-dimethyl-phenoxy]-butyric acid]	< 0.2 µM
O=C(O)CCCOc1ccc(-c2cccc(OC3CCC3)n2)cc1C(F)(F)F [Example 27, 4-[4-[6-(cyclobutoxy)-2-pyridyl]-2-(trifluoromethyl)phenoxy]butyric acid]	< 0.2 µM
CCCSc1cccc(-c2cc(F)c(SCCCC(=O)O)c(F)c2)n1 [Example 141, 4-[2,6-difluoro-4-(6-propylsulfanyl-pyridin-2-yl)-phenylsulfanyl]-butyric acid]	< 0.2 µM
CC(C)Oc1ncccc1-c1ccc(SCCCC(=O)O)cc1 [Example 131, 4-[4-(2-isopropoxy-pyridin-3-yl)-phenylsulfanyl]-butyric acid]	0.2 to 2 µM
O=C(O)CCCCCOc1c(F)cc(-c2cccnc2SC2CCC2)cc1F [Example 274, 6-[4-(2-cyclobutylsulfanyl-3-pyridyl)-2,6-difluoro-phenoxy]hexanoic acid]	< 0.2 µM
CC(C)Oc1cccc(-c2cc(F)c(SCCCC(=O)O)c(F)c2)n1 [Example 137, 4-[2,6-difluoro-4-(6-isopropoxy-pyridin-2-yl)-phenylsulfanyl]-butyric acid]	< 0.2 µM
O=C(O)CCCCSc1ccc(-c2cccnc2SC2CCCC2)cc1 [Example 258, 5-[4-(2-cyclopentylsulfanyl-pyridin-3-yl)-phenylsulfanyl]-pentanoic acid]	< 0.2 µM
O=C(O)CCCOc1c(F)cc(-c2cc(F)ccc2NC2CCCC2)cc1F [Example 96, 4-[4-[2-(cyclopentylamino)-5-fluoro-phenyl]-2,6-difluoro-phenoxy]butanoic acid]	< 0.2 µM
O=C(O)CCCSc1c(F)cc(-c2cccnc2OC2CCC2)cc1F [Example 144, 4-[4-(2-cyclobutoxy-pyridin-3-yl)-2,6-difluoro-phenylsulfanyl]-butyric acid]	< 0.2 µM
O=C(O)CCCSc1ccc(-c2cccnc2OCC2CCC2)cc1F [Example 246, 4-[4-(2-cyclobutylmethoxy-pyridin-3-yl)-2-fluoro-phenylsulfanyl]-butyric acid]	< 0.2 µM
CC(CCC(=O)O)Sc1c(F)cc(-c2cccnc2OC2CCCC2)cc1F (centres unmarked) [Example 201, 4-[4-(2-cyclopentyloxy-pyridin-3-yl)-2,6-difluoro-phenylsulfanyl]-pentanoic acid]	< 0.2 µM
O=C(O)CCCOc1c(F)cc(-c2cccnc2OC2CCCCC2)cc1F [Example 228, 4-[4-(2-cyclohexyloxy-pyridin-3-yl)-2,6-difluoro-phenoxy]-butyric acid]	< 0.2 µM
Cc1cc(Oc2ncccc2-c2cc(F)c(OCCCC(=O)O)c(F)c2)no1 [Example 217, 4-[2,6-difluoro-4-[2-(5-methylisoxazol-3-yl)oxy-3-pyridyl]phenoxy]butanoic acid]	2 to 20 µM
CC(C)(C)Sc1ncccc1-c1cc(F)c(OCCCC(=O)O)c(F)c1 [Example 63, 4-[4-(2-tert-butylsulfanyl-pyridin-3-yl)-2,6-difluoro-phenoxy]-butyric acid]	2 to 20 µM
CC(C)Sc1ncccc1-c1cc(F)c(OCCCCC(=O)O)c(F)c1 [Example 235, 5-[2,6-difluoro-4-(2-isopropylsulfanyl-3-pyridyl)phenoxy]pentanoic acid]	< 0.2 µM
O=C(O)CCCSc1c(F)cc(-c2cccnc2NC2CCCC2)cc1F [Example 249, 4-[4-(2-cyclopentylamino-pyridin-3-yl)-2,6-difluoro-phenylsulfanyl]-butyric acid]	< 0.2 µM
